# Experiments:
# [1] = molecular target: T1, ATPase family AAA domain-containing protein 2B (Homo sapiens, UniProt Q9ULI0); assay: Inhibition of human ATAD2B (955 to 1082 residues) expressed in Escherichia coli BL21 after 1 hr by BROMOscan assay
# T1 sequence (Q9ULI0 whole entry): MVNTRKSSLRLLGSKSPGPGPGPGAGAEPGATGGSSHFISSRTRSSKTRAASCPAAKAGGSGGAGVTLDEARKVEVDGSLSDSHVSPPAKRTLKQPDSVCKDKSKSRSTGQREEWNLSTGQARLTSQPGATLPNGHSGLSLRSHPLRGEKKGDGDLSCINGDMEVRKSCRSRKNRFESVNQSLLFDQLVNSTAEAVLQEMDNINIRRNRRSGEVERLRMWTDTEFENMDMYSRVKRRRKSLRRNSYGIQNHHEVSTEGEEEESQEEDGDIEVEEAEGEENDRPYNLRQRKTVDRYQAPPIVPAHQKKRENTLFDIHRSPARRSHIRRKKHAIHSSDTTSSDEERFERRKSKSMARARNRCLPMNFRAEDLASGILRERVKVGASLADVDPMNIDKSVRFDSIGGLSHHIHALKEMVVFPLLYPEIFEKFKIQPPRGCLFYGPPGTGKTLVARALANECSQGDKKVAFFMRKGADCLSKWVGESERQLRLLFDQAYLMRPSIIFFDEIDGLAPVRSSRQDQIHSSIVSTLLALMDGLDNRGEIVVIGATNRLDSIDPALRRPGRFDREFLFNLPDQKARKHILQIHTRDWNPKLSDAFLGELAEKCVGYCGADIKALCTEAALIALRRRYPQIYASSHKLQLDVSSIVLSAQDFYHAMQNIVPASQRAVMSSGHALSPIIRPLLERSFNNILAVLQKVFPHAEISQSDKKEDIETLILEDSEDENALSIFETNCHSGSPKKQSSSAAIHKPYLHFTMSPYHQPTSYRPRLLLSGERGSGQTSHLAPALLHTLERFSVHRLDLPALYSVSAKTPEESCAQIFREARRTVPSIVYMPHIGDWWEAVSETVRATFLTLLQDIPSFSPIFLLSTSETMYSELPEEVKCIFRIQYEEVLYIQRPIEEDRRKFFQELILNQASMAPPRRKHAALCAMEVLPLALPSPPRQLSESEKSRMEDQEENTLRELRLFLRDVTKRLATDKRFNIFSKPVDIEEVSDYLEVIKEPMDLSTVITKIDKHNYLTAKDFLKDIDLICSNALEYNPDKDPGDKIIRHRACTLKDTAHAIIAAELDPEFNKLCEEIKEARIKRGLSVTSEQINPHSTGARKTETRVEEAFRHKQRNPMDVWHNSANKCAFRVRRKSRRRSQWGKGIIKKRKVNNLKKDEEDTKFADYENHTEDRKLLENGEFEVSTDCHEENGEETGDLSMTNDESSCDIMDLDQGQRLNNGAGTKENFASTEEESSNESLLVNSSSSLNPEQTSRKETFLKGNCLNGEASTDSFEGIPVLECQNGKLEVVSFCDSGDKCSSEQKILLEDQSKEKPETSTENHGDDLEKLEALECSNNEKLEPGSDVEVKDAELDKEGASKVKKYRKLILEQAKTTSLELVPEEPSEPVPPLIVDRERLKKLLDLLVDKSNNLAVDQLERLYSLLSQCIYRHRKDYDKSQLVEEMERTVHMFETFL
# [2] = molecular target: T2, Transcription intermediary factor 1-alpha (Homo sapiens, UniProt O15164); assay: Inhibition of human TRIM24 bromodomain (790 to 977 residues) expressed in Escherichia coli BL21 after 1 hr by BROMOscan assay
# T2 sequence (O15164 whole entry): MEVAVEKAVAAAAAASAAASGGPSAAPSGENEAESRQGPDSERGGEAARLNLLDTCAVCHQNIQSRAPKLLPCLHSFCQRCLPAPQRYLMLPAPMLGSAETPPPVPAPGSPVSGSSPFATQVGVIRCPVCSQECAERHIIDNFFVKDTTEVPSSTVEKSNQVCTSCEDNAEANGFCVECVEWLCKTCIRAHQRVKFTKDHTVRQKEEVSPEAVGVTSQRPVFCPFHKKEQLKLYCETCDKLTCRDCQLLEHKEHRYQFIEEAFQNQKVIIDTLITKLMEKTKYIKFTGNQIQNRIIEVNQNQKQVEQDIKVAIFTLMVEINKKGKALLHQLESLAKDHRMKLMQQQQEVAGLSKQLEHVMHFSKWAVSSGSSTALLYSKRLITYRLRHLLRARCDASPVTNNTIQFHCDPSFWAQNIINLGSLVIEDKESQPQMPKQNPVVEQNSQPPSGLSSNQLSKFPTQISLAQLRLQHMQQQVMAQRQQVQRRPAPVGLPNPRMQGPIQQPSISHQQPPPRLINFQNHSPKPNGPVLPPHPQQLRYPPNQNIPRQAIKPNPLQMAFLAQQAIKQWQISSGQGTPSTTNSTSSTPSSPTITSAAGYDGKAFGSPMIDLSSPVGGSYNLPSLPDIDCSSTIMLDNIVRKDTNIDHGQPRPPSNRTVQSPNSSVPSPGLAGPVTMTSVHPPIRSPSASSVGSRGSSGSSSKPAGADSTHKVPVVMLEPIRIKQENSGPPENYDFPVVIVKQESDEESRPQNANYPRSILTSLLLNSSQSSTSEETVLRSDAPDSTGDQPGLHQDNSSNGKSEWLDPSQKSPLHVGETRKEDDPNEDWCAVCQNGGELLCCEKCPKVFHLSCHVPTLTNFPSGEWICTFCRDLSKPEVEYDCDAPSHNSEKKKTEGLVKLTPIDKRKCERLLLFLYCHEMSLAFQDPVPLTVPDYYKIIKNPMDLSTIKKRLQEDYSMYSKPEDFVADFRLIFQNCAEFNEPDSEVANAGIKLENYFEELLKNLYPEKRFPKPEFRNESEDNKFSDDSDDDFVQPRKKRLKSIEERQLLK
smiles,measurement,setting,value
COc1cc(C#N)ccc1S(=O)(=O)Nc1ccc2c(c1)cc(C)c(=O)n2C,IC50,[1],> 100000 nM
same,IC50,[2],1600 nM
